Paper PMC10822852, “Structural and biochemical insights into the mechanism of the Gabija bacterial immunity system” (Nature Communications, 2024)

Key:
[1] = molecular target: T1, Gabija complex (GajA and GajB) (Bacillus cereus, UniProt J8H9C1+J8HQ06); assay: inhibition of DNA cleavage, agarose gel; format: biochemical; conditions: 1 mM MgCl2, pH 9, 37 °C, 5 min
T1 construct: full-length GajA (1-578, Strep-tag II) co-expressed with full-length GajB (1-493, 6xHis) in E. coli BL21(DE3); hetero-octamer 4:4
T1 sequence (J8HQ06 1-493, one chain of several): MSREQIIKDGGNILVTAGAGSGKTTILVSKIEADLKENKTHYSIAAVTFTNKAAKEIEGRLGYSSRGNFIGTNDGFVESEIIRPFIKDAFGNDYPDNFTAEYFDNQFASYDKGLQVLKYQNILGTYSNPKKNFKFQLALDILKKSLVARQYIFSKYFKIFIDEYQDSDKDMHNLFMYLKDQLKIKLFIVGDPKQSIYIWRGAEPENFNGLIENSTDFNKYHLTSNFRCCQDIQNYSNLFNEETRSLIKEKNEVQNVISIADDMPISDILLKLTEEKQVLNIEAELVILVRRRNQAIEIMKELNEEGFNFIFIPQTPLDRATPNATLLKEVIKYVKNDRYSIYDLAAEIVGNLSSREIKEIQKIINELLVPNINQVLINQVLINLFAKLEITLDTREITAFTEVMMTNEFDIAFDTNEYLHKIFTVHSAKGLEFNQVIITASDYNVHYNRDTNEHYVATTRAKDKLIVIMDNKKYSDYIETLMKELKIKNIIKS

[2] = molecular target: the molecule itself; assay: SEC-MALS; Superdex 200 10/300 Increase, samples injected at 1 mg/ml in Buffer B (10 mM Tris-HCl pH 7.5, 300 mM NaCl, 2 mM DTT), 0.5 ml/min; GajA, GajB and the co-purified Gabija complex

Nc1ncnc2c1ncn2[C@@H]1O[C@H](COP(=O)(O)OP(=O)(O)O)[C@@H](O)[C@H]1O [ADP]
inhibition of DNA cleavage, agarose gel ([1]; supercoiled pUC19-15 plasmid): significantly inhibited by different NTP, dNTP, ADP, but not AMP

Nc1ncnc2c1ncn2[C@@H]1O[C@H](COP(=O)(O)OP(=O)(O)NP(=O)(O)O)[C@@H](O)[C@H]1O [AMP-PNP]
inhibition of DNA cleavage, agarose gel ([1]; non-hydrolysable ATP analogue, DNA substrate not given): cleavage activity of the Gabija complex is also inhibited by AMP-PNP

Nc1nc2c(ncn2[C@@H]2O[C@H](COP(=O)(O)OP(=O)(O)OP(=O)(O)O)[C@@H](O)[C@H]2O)c(=O)[nH]1 [GTP]
inhibition of DNA cleavage, agarose gel ([1]; supercoiled pUC19-15 plasmid): significantly inhibited with the increased concentration of ATP and GTP

B1: GajA (enzyme, Bacillus cereus VD045, UniProt J8H9C1 1-578, looked up)
chain: MKFSNITIKNFRNFEKVNINLDNKNVIFGMNDIGKTNFLYALRFLLDKEIRKFGFNKSDYHKHDTSKKIEIILTLDLSNYEKDEDTKKLISVVKGARTSANADVFYIALESKYDDKELYGNIILKWGSELDNLIDIPGRGNINALDNVFKVIYINPLVDLDKLFAQNKKYIFEESQGNESDEGILNNIKSLTDQVNQQIGEMTIIKGFQQEITSEYRSLKKEEVSIELKSEMAIKGFFSDIIPYIKKDGDSNYYPTSGDGRRKMLSYSIYNYLAKKKYEDKIVIYLIEEPEISLHRSMQIALSKQLFEQSTYKYFFLSTHSPELLYEMDNTRLIRVHSTEKVVCSSHMYNVEEAYGSVKKKLNKALSSALFAERVLLIEGPSEKILFEKVLDEVEPEYELNGGFLLEVGGTYFNHYVCTLNDLGITHIIKTDNDLKSKKGKKGVYELLGLNRCLNLLGRENLDEITIDIPEDIKGKKKKERLNERKKEIFKQYKNEVGEFLGERIYLSEIDLENDLYSAIGESMKRIFENEDPVHYLQKSKLFNMVELVNNLSTKDCFDVFEHEKFACLKELVGSDRG
notes: OLD family nuclease with ATPase domain (1-351) and Toprim domain (352-578); The methods describe only the co-expression and purification of the complex; Cloned into PET-52b; also called GajA1; GajA2; source: E. coli BL21 (DE3), purified (Strep-tactin Sepharose, Superdex 200); co-expressed with GajB for the Gabija complex
stoichiometry N [2]: 4
